# Measurements: US20260285816A1, “Piperazinyl-Modified Quinazolinyl-Aryl Urea Derivative, And Preparation Method And Use Thereof” (Guangxi Normal University, priority 2025, published 2026)
# Like-named read-outs stand apart in the source and are kept apart here.
# Key:
# Type in all cases: cell-based, human
# J82 cells = test: CCK-8 anti-proliferative assay, J82; conditions: Homo sapiens, J82; Table 10; co-incubated 48 h; read-out: Anti-proliferative activity (IC50 ± standard deviation) J82
# In short: (§1)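 Anti-proliferative effect is measured by CCK-8 after compound exposure at nine final concentrations between 1 and 30 μM. Treatment starts once seeded cells (5,000/well) reach 70% confluency at 37° C., 5% CO2.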
# UM-UC-3 cells = test: CCK-8 anti-proliferative assay, UM-UC-3; conditions: Homo sapiens, UMUC3; Table 10; co-incubated 48 h; read-out: Anti-proliferative activity (IC50 ± standard deviation) UM-UC-3
# In short: as §1
# T24 cells = test: CCK-8 anti-proliferative assay, T24; conditions: Homo sapiens, T-24; Table 10; co-incubated 48 h; read-out: Anti-proliferative activity (IC50 ± standard deviation) T24
# In short: (§2)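 Growth inhibition was measured by CCK-8 in human cells seeded at 5,000 per well and treated at 70% confluency. Compound exposure spanned 1, 2, 4, 6, 8, 12, 16, 24 and 30 μM for designated durations at 37° C. Percent inhibition against vehicle control at OD 450 nm yielded median inhibitory concentrations.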
# 5637 cells = test: CCK-8 anti-proliferative assay, 5637; conditions: Homo sapiens; Table 10; co-incubated 48 h; read-out: Anti-proliferative activity (IC50 ± standard deviation) 5637
# In short: as §1
# 143B cells = test: CCK-8 anti-proliferative assay, 143B; conditions: Homo sapiens, 143B; Table 11; co-incubated 48 h; read-out: Anti-proliferative activity (IC50 ± standard deviation) 143B
# In short: as §2
# MG-63 cells = test: CCK-8 anti-proliferative assay, MG-63; conditions: Homo sapiens, MG-63; Table 11; co-incubated 48 h; read-out: Anti-proliferative activity (IC50 ± standard deviation) MG-63
# In short: as §2
# BxPC-3 cells = test: CCK-8 anti-proliferative assay, BxPC-3; conditions: for IC50: Homo sapiens, BXPC-3, Table 11, co-incubated 48 h, read-out: Anti-proliferative activity (IC50 ± standard deviation) BxPC-3
# In short: as §2
# PANC-1 cells = test: CCK-8 anti-proliferative assay, PANC-1; conditions: for IC50: Homo sapiens, PANC-1, Table 11, co-incubated 48 h, read-out: Anti-proliferative activity (IC50 ± standard deviation) PANC-1
# In short: as §2
# HeLa cells = test: CCK-8 anti-proliferative assay, HeLa; conditions: Homo sapiens, HeLa; Table 12; co-incubated 48 h; read-out: Anti-proliferative activity (IC50 ± standard deviation) HeLa
# In short: as §1
# MCF-7 cells = test: CCK-8 anti-proliferative assay, MCF-7; conditions: Homo sapiens, MCF7; Table 12; co-incubated 48 h; read-out: Anti-proliferative activity (IC50 ± standard deviation) MCF-7
# In short: as §1
# A549 cells = test: CCK-8 anti-proliferative assay, A549; conditions: Homo sapiens, A549; Table 13; co-incubated 48 h; read-out: Anti-proliferative activity (IC50 ± standard deviation) A549
# In short: as §1
# Hep G2 cells = test: CCK-8 anti-proliferative assay, Hep G2; conditions: for IC50: Homo sapiens, HepG2
# In short: as §2
# SK-OV-3 cells = test: CCK-8 anti-proliferative assay, SK-OV-3; conditions: Homo sapiens, SK-OV-3; Table 12; co-incubated 48 h; read-out: Anti-proliferative activity (IC50 ± standard deviation) SK-OV-3
# In short: as §1
# [1] = test system: immortalized ureteral epithelial cells (SV-HUC-1); test: CCK-8 anti-proliferative assay, normal cells SV-HUC-1; conditions: Homo sapiens, SV-HUC1; Table 13; normal cells; co-incubated 48 h; read-out: Anti-proliferative activity (IC50 ± standard deviation) SV-HUC-1
# In short: as §1
# [2] = test system: embryonic lung fibroblasts (WI-38); test: CCK-8 anti-proliferative assay, normal cells WI-38; conditions: Homo sapiens, WI-38, Table 13, co-incubated 48 h, read-out: Anti-proliferative activity (IC50 ± standard deviation) WI-38
# In short: as §2
# [3] = Table 12, co-incubated 48 h, read-out: Anti-proliferative activity (IC50 ± standard deviation) Hep G2
Structure (SMILES),IC50 (T24 cells),IC50 (BxPC-3 cells),IC50 (PANC-1 cells),IC50 (HeLa cells),IC50 (MCF-7 cells),IC50 (A549 cells),IC50 (SK-OV-3 cells),IC50 (J82 cells),IC50 (UM-UC-3 cells),IC50 (5637 cells),IC50 (143B cells),IC50 (MG-63 cells),IC50 (Hep G2 cells; [3]),IC50 [1],IC50 [2],"Sensitivity of BxPC-3 / anti-proliferative activity against BxPC-3, in words (BxPC-3 cells)","Sensitivity of PANC-1, in words (PANC-1 cells)","Anti-proliferative activity against Hep G2 versus comparative series, in words (Hep G2 cells)",IC50 (Hep G2 cells; read-out: IC50 on Hep G2)
"COc1cc2ncnc(NCc3cccc(NC(=O)Nc4cccc(C)c4)c3)c2cc1OCCCCCCN1CCC(CN2CCN(c3ccccn3)CC2)CC1 [Compound 8-2c, N-(3-(((7-methoxy-6-((6-(4-((4-(pyridin-2-yl)piperazin-1-yl)methyl)piperidin-1-yl)hexyl)oxy)quinazolin-4-yl)amino)methyl)phenyl)-N′-(3-methylphenyl)urea]",7.29 ± 0.61 µM,13.4 ± 0.88 µM,19.2 ± 1.08 µM,6.19 ± 0.53 µM,6.69 ± 0.48 µM,8.39 ± 0.85 µM,7.94 ± 0.66 µM,7.02 ± 0.58 µM,8.98 ± 0.89 µM,7.06 ± 0.57 µM,6.01 ± 0.46 µM,6.83 ± 0.62 µM,4.69 ± 0.36 µM,8.28 ± 0.51 µM,11.2 ± 0.49 µM,,,,
"COc1cc2ncnc(NCc3cccc(NC(=O)Nc4ccc(C)cc4C)c3)c2cc1OCCCCCCN1CCC(CN2CCN(c3ccccn3)CC2)CC1 [Compound 8-2e, N-(3-(((7-methoxy-6-((6-(4-((4-(pyridin-2-yl)piperazin-1-yl)methyl)piperidin-1-yl)hexyl)oxy)quinazolin-4-yl)amino)methyl)phenyl)-N′-(2,4-dimethylphenyl)urea]",5.57 ± 0.36 µM,5.46 ± 0.44 µM,8.37 ± 0.66 µM,5.26 ± 0.29 µM,7.65 ± 0.69 µM,4.92 ± 0.29 µM,7.26 ± 0.72 µM,5.31 ± 0.26 µM,6.68 ± 0.47 µM,4.31 ± 0.42 µM,5.19 ± 0.33 µM,7.03 ± 0.71 µM,3.68 ± 0.19 µM,7.56 ± 0.38 µM,10.9 ± 0.66 µM,heightened sensitivity,heightened sensitivity,significantly better than that of 9a to 9y,3.68 ± 0.19 µM
"COc1cc2ncnc(NCc3cccc(NC(=O)Nc4cc(C)cc(C)c4)c3)c2cc1OCCCCCCN1CCC(CN2CCN(c3ccccn3)CC2)CC1 [Compound 8-2f, N-(3-(((7-methoxy-6-((6-(4-((4-(pyridin-2-yl)piperazin-1-yl)methyl)piperidin-1-yl)hexyl)oxy)quinazolin-4-yl)amino)methyl)phenyl)-N′-(3,5-dimethylphenyl)urea]",6.01 ± 0.46 µM,9.06 ± 0.42 µM,12.8 ± 0.62 µM,7.25 ± 0.38 µM,8.09 ± 0.48 µM,7.67 ± 0.93 µM,14.2 ± 0.84 µM,12 ± 0.87 µM,12 ± 0.86 µM,6.91 ± 0.67 µM,5.75 ± 0.36 µM,6.92 ± 0.53 µM,11.7 ± 0.84 µM,11.6 ± 0.79 µM,9.89 ± 0.53 µM,,,,
"CCc1ccccc1NC(=O)Nc1cccc(CNc2ncnc3cc(OC)c(OCCCCCCN4CCC(CN5CCN(c6ccccn6)CC5)CC4)cc23)c1 [Compound 8-2g, N-(3-(((7-methoxy-6-((6-(4-((4-(pyridin-2-yl)piperazin-1-yl)methyl)piperidin-1-yl)hexyl)oxy)quinazolin-4-yl)amino)methyl)phenyl)-N′-(2-ethylphenyl)urea]",7.04 ± 0.55 µM,8.56 ± 0.72 µM,8.79 ± 0.98 µM,5.62 ± 0.44 µM,7.62 ± 0.77 µM,6.59 ± 0.64 µM,8.96 ± 0.83 µM,5.76 ± 0.31 µM,11.6 ± 0.62 µM,6.04 ± 0.43 µM,5.37 ± 0.29 µM,6.04 ± 0.65 µM,6.38 ± 0.44 µM,7.42 ± 0.35 µM,9.39 ± 0.41 µM,,,,
"COc1cc2ncnc(NCc3cccc(NC(=O)Nc4ccc(C(C)C)cc4)c3)c2cc1OCCCCCCN1CCC(CN2CCN(c3ccccn3)CC2)CC1 [Compound 8-2i, N-(3-(((7-methoxy-6-((6-(4-((4-(pyridin-2-yl)piperazin-1-yl)methyl)piperidin-1-yl)hexyl)oxy)quinazolin-4-yl)amino)methyl)phenyl)-N′-(4-isopropylphenyl)urea]",5.92 ± 0.47 µM,8.97 ± 0.89 µM,9.42 ± 0.83 µM,4.97 ± 0.48 µM,6.21 ± 0.63 µM,7.63 ± 0.87 µM,6.69 ± 0.49 µM,5.88 ± 0.35 µM,6.32 ± 0.44 µM,4.24 ± 0.32 µM,6.38 ± 0.33 µM,4.79 ± 0.46 µM,3.85 ± 0.29 µM,10.8 ± 0.74 µM,10.5 ± 0.36 µM,,,,
"COc1ccccc1NC(=O)Nc1cccc(CNc2ncnc3cc(OC)c(OCCCCCCN4CCC(CN5CCN(c6ccccn6)CC5)CC4)cc23)c1 [Compound 8-2k, N-(3-(((7-methoxy-6-((6-(4-((4-(pyridin-2-yl)piperazin-1-yl)methyl)piperidin-1-yl)hexyl)oxy)quinazolin-4-yl)amino)methyl)phenyl)-N′-(2-methoxyphenyl)urea]",5.34 ± 0.27 µM,7.11 ± 0.79 µM,15.9 ± 0.94 µM,5.51 ± 0.49 µM,6.68 ± 0.79 µM,14.2 ± 1.31 µM,6.32 ± 0.56 µM,5.68 ± 0.42 µM,7.19 ± 0.52 µM,5.63 ± 0.38 µM,6.08 ± 0.37 µM,6.38 ± 0.43 µM,4.99 ± 0.47 µM,13 ± 0.88 µM,11.2 ± 0.65 µM,,,,

# Now from value to molecule, other results behind:
IC50 (T24 cells),IC50 (BxPC-3 cells),IC50 (PANC-1 cells),IC50 (HeLa cells),IC50 (MCF-7 cells),IC50 (A549 cells),IC50 (SK-OV-3 cells),Structure (SMILES),IC50 (J82 cells),IC50 (UM-UC-3 cells),IC50 (5637 cells),IC50 (143B cells),IC50 (MG-63 cells),IC50 (Hep G2 cells; [3]),IC50 [1],IC50 [2],"Sensitivity of BxPC-3 / anti-proliferative activity against BxPC-3, in words (BxPC-3 cells)","Sensitivity of PANC-1, in words (PANC-1 cells)","Anti-proliferative activity against Hep G2 versus comparative series, in words (Hep G2 cells)",IC50 (Hep G2 cells; read-out: IC50 on Hep G2)
6.62 ± 0.49 µM,9.29 ± 0.73 µM,25.4 ± 2.04 µM,4.79 ± 0.38 µM,7.92 ± 0.51 µM,9.23 ± 0.61 µM,6.79 ± 0.62 µM,"COc1cc2ncnc(NCc3cccc(NC(=O)Nc4ccc(C)cc4)c3)c2cc1OCCCCCCN1CCC(CN2CCN(c3ccccn3)CC2)CC1 [Compound 8-2d, N-(3-(((7-methoxy-6-((6-(4-((4-(pyridin-2-yl)piperazin-1-yl)methyl)piperidin-1-yl)hexyl)oxy)quinazolin-4-yl)amino)methyl)phenyl)-N′-(4-methylphenyl)urea]",13.8 ± 1.33 µM,7.58 ± 0.79 µM,14.3 ± 0.89 µM,6.92 ± 0.39 µM,7.29 ± 0.62 µM,3.82 ± 0.25 µM,7.94 ± 0.44 µM,9.79 ± 0.38 µM,,,,
6.02 ± 0.46 µM,18.9 ± 1.24 µM,> 30 µM,6.42 ± 0.69 µM,7.29 ± 0.63 µM,> 30 µM,11.7 ± 0.88 µM,"COc1ccc(NC(=O)Nc2cccc(CNc3ncnc4cc(OC)c(OCCCCCCN5CCC(CN6CCN(c7ccccn7)CC6)CC5)cc34)c2)cc1 [Compound 8-2l, N-(3-(((7-methoxy-6-((6-(4-((4-(pyridin-2-yl)piperazin-1-yl)methyl)piperidin-1-yl)hexyl)oxy)quinazolin-4-yl)amino)methyl)phenyl)-N′-(4-methoxyphenyl)urea]",7.83 ± 0.69 µM,12 ± 0.94 µM,9.12 ± 0.59 µM,6.75 ± 0.41 µM,7.69 ± 0.58 µM,4.74 ± 0.62 µM,10.9 ± 0.69 µM,13.9 ± 0.71 µM,,,,
5.82 ± 0.36 µM,14.4 ± 1.55 µM,18.8 ± 1.43 µM,12.7 ± 0.92 µM,12.8 ± 0.85 µM,15.4 ± 0.83 µM,5.93 ± 0.61 µM,"COc1cc2ncnc(NCc3cccc(NC(=O)Nc4ccc(F)cc4)c3)c2cc1OCCCCCCN1CCC(CN2CCN(c3ccccn3)CC2)CC1 [Compound 8-2n, N-(3-(((7-methoxy-6-((6-(4-((4-(pyridin-2-yl)piperazin-1-yl)methyl)piperidin-1-yl)hexyl)oxy)quinazolin-4-yl)amino)methyl)phenyl)-N′-(4-fluorophenyl)urea]",15 ± 1.19 µM,12.8 ± 0.76 µM,8.61 ± 0.73 µM,6.71 ± 0.48 µM,8.39 ± 0.66 µM,8.51 ± 0.67 µM,14.4 ± 0.77 µM,9.98 ± 0.53 µM,,,,
